{
  "source": "ChEMBL document CHEMBL1150158",
  "about": "“Lyngbyastatin 1 and Ibu-epilyngbyastatin 1: synthesis, stereochemistry, and NMR line broadening” (J Nat Prod, 2002)",
  "key": {"[1]": {"tested_on": "NCI-H460", "experiment": "Growth inhibition of human NCI-H460 cells", "type": "functional"}, "[2]": {"tested_on": "DU-145", "experiment": "Growth inhibition of human DU145 cells", "type": "functional"}, "[3]": {"experiment": "Induction of rabbit muscle actin polymerization after 1 hr", "set-up": "species or system Oryctolagus cuniculus, Muscle tissue"}},
  "note": "Numbered stars: 1 amine (or outer) side, 2 acyl side, 3 side chain; on linkers, the order of the positions; unused ones are H or OH. Square brackets hold non-standard residues; d marks the D form. Peptide text beside a SMILES is read from it. X1 = CC[C@H](C)[C@H](OC(=O)[C@@H](C)[C@@H](CC)N[*:1])C(=O)[*:2]; X3 = C[C@@H](N[*:1])C(=O)C(C)(C)C(=O)[*:2]; X2 = C[C@H](N[*:1])C(=O)C(C)(C)C(=O)[*:2]; NMeY = CN[C@@H](Cc1ccc(O)cc1)C(=O)O; NMeL = CN[C@@H](CC(C)C)C(=O)O; NMeV = CN[C@H](C(=O)O)C(C)C",
  "data": [
    {"smiles": "CC[C@H](C)[C@@H]1OC(=O)[C@@H](C)[C@@H](CC)NC(=O)[C@H](C)NC(=O)C(C)(C)C(=O)[C@@H](C)NC(=O)[C@H](Cc2ccc(OC)cc2)N(C)C(=O)[C@H](C(C)C)N(C)C(=O)CNC(=O)[C@H](CC(C)C)N(C)C(=O)CNC1=O", "note": "(cyclo(A[X1]G[NMeL]G[NMeV][NMeY](Me)[X3]))", "values": [
      {"measurement": "GI50", "setting": "[1]", "result": 0.031, "unit": "µg/mL"},
      {"measurement": "GI50", "setting": "[2]", "result": 0.24, "unit": "µg/mL"}
    ]},
    {"smiles": "CC[C@H](C)[C@@H]1OC(=O)[C@@H](C)[C@@H](CC)NC(=O)[C@H](C)NC(=O)C(C)(C)C(=O)[C@H](C)NC(=O)[C@H](Cc2ccc(OC)cc2)N(C)C(=O)[C@H](C(C)C)N(C)C(=O)CNC(=O)[C@H](CC(C)C)N(C)C(=O)CNC1=O", "note": "[DOLASTATIN 11] (cyclo(A[X1]G[NMeL]G[NMeV][NMeY](Me)[X2]))", "values": [
      {"measurement": "GI50", "setting": "[1]", "result": 0.0013, "unit": "µg/mL"},
      {"measurement": "GI50", "setting": "[2]", "result": 0.22, "unit": "µg/mL"},
      {"measurement": "EC50", "setting": "[3]", "result": 9.5, "unit": "µM"}
    ]}
  ]
}
